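Cells were grown in 96-well plates and exposed to each compound for 48 hours at five concentrations; endpoints were interpolated linearly between bracketing concentrations, or set to the highest concentration if not reached. GI50 = concentration required for 50% inhibition of growth. TGI is the concentration that stops growth completely.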
Tests used:
Test in all cases: growth of human tumour cells (NCI), 48 h
BT-549 breast = system: BT-549 breast
COLO 205 colon = system: COLO 205 colon
HCT-116 colon = system: HCT-116 colon
SF-268 CNS = system: SF-268 CNS
SK-OV-3 ovarian = system: SK-OV-3 ovarian
CAKI-1 renal = system: CAKI-1 renal
HS 578T breast = system: HS 578T breast
NCI/ADR-RES ovarian = system: NCI/ADR-RES ovarian
OVCAR-4 ovarian = system: OVCAR-4 ovarian
SR leukemia = system: SR leukemia
NCI-H460 lung = system: NCI-H460 lung
DU-145 prostate = system: DU-145 prostate
EKVX NSCLC = system: EKVX NSCLC
K-562 leukemia = system: K-562 leukemia
SNB-19 CNS = system: SNB-19 CNS
LOX IMVI melanoma = system: LOX IMVI melanoma
SF-539 CNS = system: SF-539 CNS
HT29 colon = system: HT29 colon
TK-10 renal = system: TK-10 renal
RXF 393 renal = system: RXF 393 renal
HL-60(TB) leukemia = system: HL-60(TB) leukemia
IGROV1 ovarian = system: IGROV1 ovarian
UACC-62 melanoma = system: UACC-62 melanoma
A549 NSCLC = system: A549 NSCLC
SK-MEL-2 melanoma = system: SK-MEL-2 melanoma
SF-295 CNS = system: SF-295 CNS
UO-31 renal = system: UO-31 renal
CCRF-CEM leukemia = system: CCRF-CEM leukemia

COc1ccc(-c2nnc3n(C)c(=O)c4ccccc4n23)cc1O
GI50 (BT-549 breast): 2.91 µM | TGI (BT-549 breast): > 100 µM | GI50 (COLO 205 colon): 3.36 µM | TGI (COLO 205 colon): 21.1 µM | GI50 (HCT-116 colon): 0.161 µM | TGI (HCT-116 colon): > 50.3 µM | GI50 (SF-268 CNS): 5.29 µM | TGI (SF-268 CNS): > 100 µM | GI50 (SK-OV-3 ovarian): 1.12 µM | TGI (SK-OV-3 ovarian): 32.9 µM | GI50 (CAKI-1 renal): 1.06 µM | TGI (CAKI-1 renal): > 100 µM | GI50 (HS 578T breast): 0.964 µM | TGI (HS 578T breast): 35.9 µM | GI50 (NCI/ADR-RES ovarian): 0.154 µM | TGI (NCI/ADR-RES ovarian): 33.9 µM | GI50 (OVCAR-4 ovarian): 4.32 µM | TGI (OVCAR-4 ovarian): > 100 µM | GI50 (SR leukemia): 0.1 µM | TGI (SR leukemia): > 100 µM | GI50 (NCI-H460 lung): 0.172 µM | TGI (NCI-H460 lung): > 100 µM | GI50 (DU-145 prostate): 2.22 µM | TGI (DU-145 prostate): > 100 µM | GI50 (EKVX NSCLC): 14.1 µM | TGI (EKVX NSCLC): > 100 µM | GI50 (K-562 leukemia): 0.135 µM | TGI (K-562 leukemia): > 100 µM | GI50 (SNB-19 CNS): 0.862 µM | TGI (SNB-19 CNS): > 64.9 µM | GI50 (LOX IMVI melanoma): 1.25 µM | TGI (LOX IMVI melanoma): > 100 µM | GI50 (SF-539 CNS): 0.596 µM | TGI (SF-539 CNS): 6.68 µM | GI50 (HT29 colon): 3.94 µM | TGI (HT29 colon): 43.6 µM | GI50 (TK-10 renal): 6.8 µM | TGI (TK-10 renal): > 100 µM | GI50 (RXF 393 renal): 0.758 µM | TGI (RXF 393 renal): 6.21 µM | GI50 (HL-60(TB) leukemia): 0.13 µM | TGI (HL-60(TB) leukemia): 1.32 µM | GI50 (IGROV1 ovarian): 2.69 µM | TGI (IGROV1 ovarian): > 86.3 µM | GI50 (UACC-62 melanoma): 0.441 µM | TGI (UACC-62 melanoma): 27.1 µM | GI50 (A549 NSCLC): 2.29 µM | TGI (A549 NSCLC): > 100 µM | GI50 (SK-MEL-2 melanoma): 0.14 µM | TGI (SK-MEL-2 melanoma): 37.5 µM | GI50 (SF-295 CNS): 1.05 µM | TGI (SF-295 CNS): 13 µM | GI50 (UO-31 renal): 2.13 µM | TGI (UO-31 renal): > 100 µM | GI50 (CCRF-CEM leukemia): 1.81 µM | TGI (CCRF-CEM leukemia): > 100 µM

From PubChem BioAssay (NCI)
